# Read-outs that look alike come from different tables or passages of the source.
# What was measured:
# [1] = system: green peach aphid (Myzus persicae); assay: Myzus persicae spray test; assay type: in vivo; details: foliar, 120 h, read-out: efficacy
# Description: Solvent: 78 parts by weight of acetone • • 1.5 parts by weight of dimethylformamide
# (§1) Emulsifier: alkylaryl polyglycol ether
# (§2) To produce a suitable active compound formulation, 1 part by weight of active compound is dissolved with the specified parts by weight of solvent and made up to the desired concentration with water containing an emulsifier concentration of 1000 ppm. To produce further test concentrations, the formulation is diluted with emulsifier-containing water.
# Discs of Chinese cabbage leaves (Brassica pekinensis) infested by all stages of the green peach aphid (Myzus persicae) are sprayed with an active compound formulation of the desired concentration.
# (§3) After 5 days, the efficacy in % is determined. 100% means that all the aphids have been killed; 0% means that no aphids have been killed.
# [2] = system: adult cat fleas (Ctenocephalides felis); assay: Ctenocephalides felis oral test; assay type: in vivo; details: 48 h, read-out: efficacy (kill)
# Description: (§4) Solvent: dimethyl sulfoxide
# To produce a suitable active compound formulation, 10 mg of active compound are mixed with 0.5 ml of dimethyl sulfoxide. Dilution with citrated cattle blood gives the desired concentration.
# About 20 unfed adult cat fleas (Ctenocephalides felis) are placed into a chamber which is closed at the top and bottom with gauze. A metal cylinder whose bottom end is closed with parafilm is placed onto the chamber. The cylinder contains the blood/active compound formulation, which can be imbibed by the fleas through the parafilm membrane.
# After 2 days, the kill in % is determined. 100% means that all of the fleas have been killed; 0% means that none of the fleas have been killed.
# [3] = system: adult cat fleas (Ctenocephalides felis); assay: Ctenocephalides felis in vitro contact test with adult cat fleas; assay type: in vivo; details: application rate 5 μg/cm^2 (=500 g/ha), after 48 h, dead or moribund fleas
# Description: For the coating of the test tubes, 9 mg of active compound are first dissolved in 1 ml of acetone p.a. and then diluted to the desired concentration with acetone p.a. 250 μl of the solution are distributed homogeneously on the inner walls and the base of a 25 ml glass tube by turning and rocking on an orbital shaker (rocking rotation at 30 rpm for 2 h). With 900 ppm of active compound solution and internal surface area 44.7 cm^2, given homogeneous distribution, an area-based dose of 5 μg/cm^2 is achieved.
# After the solvent has evaporated off, the tubes are populated with 5-10 adult cat fleas (Ctenocephalides felis), sealed with a perforated plastic lid and incubated in a horizontal position at room temperature and ambient humidity. After 48 h, efficacy is determined. To this end, the tubes are stood upright and the fleas are knocked to the base of the tube. Fleas which remain motionless at the base or move in an uncoordinated manner are considered to be dead or moribund.
# 100% efficacy means that all the fleas were dead or moribund. 0% efficacy means that no fleas were harmed.
# [4] = system: L1 larvae of the Australian sheep blowfly (Lucilia cuprina); assay: Lucilia cuprina test; assay type: in vivo; details: 48 h, read-out: efficacy (kill)
# Description: as §4
# (§5) To produce a suitable active compound formulation, 10 mg of active compound are mixed with 0.5 ml of dimethyl sulfoxide, and the concentrate is diluted with water to the desired concentration.
# About 20 L1 larvae of the Australian sheep blowfly (Lucilia cuprina) are transferred into a test vessel containing minced horsemeat and the active compound formulation of the desired concentration.
# After 2 days, the kill in % is determined. 100% means that all the larvae have been killed; 0% means that no larvae have been killed.
# [5] = system: caterpillars of the fall armyworm (Spodoptera frugiperda); assay: Spodoptera frugiperda spray test; assay type: in vivo; details: foliar, 168 h, read-out: efficacy
# Description: (§6) Solvent: 78.0 parts by weight of acetone • • 1.5 parts by weight of dimethylformamide
# as §1, §2
# Leaf discs of maize (Zea mays) are sprayed with an active compound formulation of the desired concentration and, after drying, populated with caterpillars of the fall armyworm (Spodoptera frugiperda).
# After 7 days, the efficacy in % is determined. 100% means that all the caterpillars have been killed; 0% means that no caterpillar has been killed.
# [6] = system: larvae of the mustard beetle (Phaedon cochleariae); assay: Phaedon cochleariae spray test; assay type: in vivo; details: foliar, 168 h, read-out: efficacy
# Description: as §6, §1, §2
# Discs of Chinese cabbage leaves (Brassica pekinensis) are sprayed with an active compound formulation of the desired concentration and, after drying, populated with larvae of the mustard beetle (Phaedon cochleariae).
# After 7 days, the efficacy in % is determined. 100% means that all the beetle larvae have been killed; 0% means that no beetle larvae have been killed.
# [7] = system: green peach aphids (Myzus persicae); assay: Myzus persicae oral test; assay type: in vivo; details: 120 h, read-out: efficacy
# Description: Solvent: 100 parts by weight of acetone
# To produce a suitable active compound formulation, 1 part by weight of active compound is dissolved with the stated parts by weight of solvent and made up to the desired concentration with water.
# 50 μl of the active compound formulation are transferred into microtitre plates and made up to a final volume of 200 μl with 150 μl of IPL41 insect medium (33%+15% sugar). Subsequently, the plates are sealed with parafilm, which a mixed population of green peach aphids (Myzus persicae) within a second microtitre plate is able to puncture and imbibe the solution.
# as §3
# [8] = system: adult houseflies (Musca domestica); assay: Musca domestica test; assay type: in vivo; details: after 2 days
# Description: as §4, §5
# Vessels containing a sponge treated with sugar solution and the desired concentration of active compound formulation are populated with 10 adult houseflies (Musca domestica).
# After 2 days, the kill in % is determined. 100% means that all of the flies have been killed; 0% means that none of the flies have been killed.
# [9] = logP by HPLC on reversed-phase column (C18), acidic range; assay type: physicochemical; details: formic acid in water/acetonitrile
# Description: The logP values were determined according to EEC Directive 79/831 Annex V.A8 by HPLC (high-performance liquid chromatography) on a reversed-phase column (C18) using the following methods:
# Calibration was carried out using a homologous series of straight-chain alkan-2-ones (having 3 to 16 carbon atoms) with known logP values. The values between successive alkanones are determined by linear regression.
# [10] = system: southern root-knot nematode (Meloidogyne incognita); assay: Meloidogyne incognita test; assay type: in vivo; details: 20 ppm, after 14 days, lettuce
# Description: Solvent: 125.0 parts by weight of acetone
# To produce a suitable active compound formulation, 1 part by weight of active compound is mixed with the stated amount of solvent and the concentrate is diluted to the desired concentration with water.
# Vessels are filled with sand, active compound solution, an egg/larvae suspension of the southern root-knot nematode (Meloidogyne incognita) and lettuce seeds. The lettuce seeds germinate and the plants develop. The galls develop on the roots.
# After 14 days, the nematicidal efficacy in % is determined by the formation of galls. 100% means that no galls were found; 0% means that the number of galls on the treated plants corresponds to the untreated control.
# [11] = system: engorged adult female cattle ticks (Boophilus microplus); assay: Boophilus microplus injection test; assay type: in vivo; details: 20 μg/animal, injection into abdomen
# Description: as §4
# To produce a suitable active compound formulation, 10 mg of active compound are mixed with 0.5 ml of solvent and the concentrate is diluted to the desired concentration with solvent.
# 1 μl of the active compound solution is injected into the abdomen of 5 engorged adult female cattle ticks (Boophilus microplus). The animals are transferred into dishes and kept in a climate-controlled room.
# The activity is assessed after the desired time by laying of fertile eggs. Eggs which are not visibly fertile are stored in a climate-controlled cabinet until the larvae hatch after about 42 days. An efficacy of 100% means that none of the ticks has laid any fertile eggs; 0% means that all the eggs are fertile.
# [12] = 100 g/ha, after 5 days, Chinese cabbage leaf discs
# [13] = 100 ppm in citrated cattle blood, after 2 days
# [14] = 100 g/ha, after 7 days, maize leaf discs
# [15] = 100 g/ha, after 7 days, Chinese cabbage leaf discs
# [16] = reversed-phase HPLC column (C18)
SMILES,"pest or weed control at 100 g/ha [1, 12] [%]","pest or weed control at 100 ppm [2, 13] [%]",efficacy [3] [%],"pest or weed control at 100 ppm ([4]; 100 ppm, after 2 days) [%]","pest or weed control at 100 g/ha [5, 14] [%]","pest or weed control at 100 g/ha [6, 15] [%]","pest or weed control at 4 ppm ([7]; 4 ppm, after 5 days) [%]",efficacy (kill) ([8]; 100 ppm) [%],also measured
CCS(=O)(=O)c1c(-c2nc3cc(C(F)(F)F)cnc3n2C)nc2cc(NC(=O)C3CC3)ccn12 [Example I-01],90,100,100,100,100,100,100,80,–
CCS(=O)(=O)c1c(-c2nc3cc(C(F)(F)F)cnc3n2C)nc2cc(NC(=O)OC3CCC3)ccn12 [Example I-02],–,100,100,–,–,–,–,–,pest or weed control at 100 g/ha ([1]; in Brassica rapa): 70%; pest or weed control at 100 ppm [4]: 100%; pest or weed control at 100 g/ha ([5]; in Zea mays): 83%; pest or weed control at 100 g/ha ([6]; in Brassica rapa): 67%; pest or weed control at 4 ppm [7]: 100%
CCS(=O)(=O)c1c(-c2nc3cc(C(F)(F)F)cnc3n2C)nc2cc(NC(=O)NC3CC3)ccn12 [Example I-03],100,100,–,100,–,100,100,–,–
CCS(=O)(=O)c1c(-c2nc3cc(C(F)(F)F)cnc3n2C)nc2cc(NC(=O)OCC3CC3)ccn12 [Example I-04],–,100,–,–,–,–,–,–,pest or weed control at 100 ppm [4]: 100%; pest or weed control at 100 g/ha ([5]; in Zea mays): 100%; pest or weed control at 100 g/ha ([6]; in Brassica rapa): 100%
"CCS(=O)(=O)c1c(-c2nc3cc(C(F)(F)F)cnc3n2C)nc2cc(NC(=S)NC3CC3)ccn12 [Example I-05, 1-Cyclopropyl-3-{3-(ethylsulfonyl)-2-[3-methyl-6-(trifluoromethyl)-3H-imidazo[4,5-b]pyridin-2-yl]imidazo [1,2-a]pyridin-7-yl}thiourea]",90,100,–,100,100,100,100,100,"chromatographic logP [9, 16]: 2.71; nematicidal efficacy (formation of galls) [10]: 90%"
"CCS(=O)(=O)c1c(-c2nc3cc(C(F)(F)F)cnc3n2C)nc2cc(NS(=O)(=O)NC3CC3)ccn12 [Example I-07, N-Cyclopropyl-N′-{3-(ethylsulfonyl)-2-[3-methyl-6-(trifluoromethyl)-3H-imidazo[4,5-b]pyridin-2-yl]imidazo[1,2-a]pyridin-7-yl}sulfurdiamide]",–,100,100,100,–,–,100,80,"chromatographic logP [9, 16]: 2.55"
"CCS(=O)(=O)c1c(-c2nc3cc(C(F)(F)F)cnc3n2C)nc2cc(NC(=O)OC3(C)CC3)ccn12 [Example I-08, 1-Methylcyclopropyl-{3-(ethylsulfonyl)-2-[3-methyl-6-(trifluoromethyl)-3H-imidazo[4,5-b]pyridin-2-yl]imidazo[1,2-a]pyridin-7-yl}carbamate]",–,–,–,–,–,–,–,–,pest or weed control at 100 ppm [2]: 100%; pest or weed control at 100 ppm [4]: 100%; chromatographic logP [9]: 3.14; pest or weed control at 100 g/ha ([5]; in Zea mays): 100%; pest or weed control at 100 g/ha ([6]; in Brassica rapa): 100%; pest or weed control at 4 ppm [7]: 100%
"CCS(=O)(=O)c1c(-c2nc3cc(C(F)(F)F)cnc3n2C)nc2cc(S(=O)(=O)C3CC3)ccn12 [Example I-09, 2-[7-(Cyclopropylsulfonyl)-3-(ethylsulfonyl)imidazo[1,2-a]pyridin-2-yl]-3-methyl-6-(trifluoromethyl)-3H-imidazo[4,5-b]pyridine]",90,100,100,100,100,100,100,–,"chromatographic logP [9, 16]: 2.89; efficacy (kill) ([8]; 20 ppm): 80%"
CCS(=O)(=O)c1c(-c2nc3cc(SC(F)(F)F)cnc3n2C)nc2cc(S(=O)(=O)C3CC3)ccn12 [Example I-12],100,100,–,–,100,100,100,100,–
CCS(=O)(=O)c1c(-c2nc3cc(SC(F)(F)F)cnc3n2C)nc2cc(NC(=O)C3CC3)ccn12 [Example I-13],90,100,100,100,100,100,100,–,–
CCS(=O)(=O)c1c(-c2nc3cc(C(F)(F)F)cnc3n2C)nc2cc(C(=O)C3CC3)ccn12 [Example I-20],–,–,–,–,100,100,–,–,efficacy (no laying of fertile eggs) [11]: 80%
CCS(=O)(=O)c1c(-c2nc3cc(C(F)(F)F)cnc3n2C)nc2cc(C(F)(F)C3CC3)ccn12 [Example I-21],–,100,–,–,100,100,–,–,efficacy (no laying of fertile eggs) [11]: 90%

# Source: patent USRE50663E1, “Heterocycle derivatives as pesticides” (Bayer Aktiengesellschaft, priority 2017, dated 2025)
